Patent publication US11213522B2, “Autoimmune-induced glutamatergic receptor dysfunction methods and treatments” (SARAH HERZOG MEMORIAL HOSPITAL EZRAT NASHIM ASSOCIATION, priority 2013, dated 2022)

System: Rodent neuron cell cultures treated with anti-NMDAR antibodies
Assay: Example 3: NMDAR localization in neuron cultures treated with anti-NMDAR antibodies
Type: cell-based
Conditions: Glycine 100-500 uM; histological measurements
Procedure: Rodent neuron cell cultures are treated with anti-NMDAR antibodies as described in Hughes E G et al., J Neurosci 2012 30(17):5866-75. […] The determination of receptors localization and other relevant measures is based on histological measurements.
Immunohistochemical methods will be applied to document (a) localization of NMDAR and NR1 and NR2 subunits; (b) loss of oligodendrocytes; (c) changes in astrocytes (S100beta) and microglia (cd11b), (d) expression of neurotrophic factors: brain derived neurotrophic factor (BDNF), nerve growth factor (NGF) and ciliary neurotrophic factor (CNTF); (e) markers of neurogenesis—doublecortin (17) and apoptosis—caspase3 (9). Quantification of histological measurements is based on images in several cortical subregions, striatum, […], hippocampus, and cerebellum.

SMILES: NCC(=O)O [Glycine]
- Effect on NMDAR intracellular localization: reversing receptor intracellular localization
